Experimental data: patent publication EP4722207A1, “OXOISOINDOLINYL-SUBSTITUTED TETRAHYDROPYRIMIDINEDIONE DERIVATIVE AND USE THEREOF” (Gluetacs Therapeutics (Shanghai) Co., Ltd., priority 2023, dated 2024)

What was measured:
Assay type in all cases: cell-based
Settings in all cases: compounds at 50 nM and 500 nM, 24 hours
WEE1 = target: T1, WEE1 (Homo sapiens, UniProt P30291+Q96SW2); test: Western-blot assay, substrate protein degradation in hPBMCs: WEE1
T1 construct: effects of the compounds of the present disclosure on the expression of target proteins in cells; endogenous in cells; host or cells: human PBMCs (hPBMCs)
Protocol: (§1) Conventional Western blot assay was performed to evaluate the effects of the compounds of the present disclosure on the expression of target proteins in cells. • (1) Cell Seeding and Protein Harvesting: Human peripheral blood mononuclear cells (hPBMCs) at a density of 1x10^6 cells/mL were thawed according to the PBMC Recovery Protocol (Milecell Biotechnologies Inc, Shanghai). […] After 24 hours of compounds treatment, cells were harvested and lysed in RIPA protein lysate containing protease inhibitors on ice for 30 min, followed by centrifugation. The supernatant was aspirated as the extracted total cell protein. The protein concentration of the supernatant was determined using the conventional BCA (Bicinchoninic Acid) assay. • (2) To the collected supernatant, 5X SDS sample loading buffer was added, followed by denaturation at 95°C for 5 minutes. The denatured samples were then separated by SDS-PAGE electrophoresis on a polyacrylamide gel. Proteins were transferred to a nitrocellulose membrane (0.45 µm NC membrane), blocked with blocking buffer at room temperature for 1 hour, and subjected to antibody incubation and development procedures according to the antibody manufacturer's instructions (Cell Signaling Technology).
(§2) Half-Maximal Degradation Concentration value (the drug concentration required for degrading proteins by 50%, abbreviated as DC50) reads method: comparing the grayscale values of Western blot bands from drug-treated samples with those from blank DMSO-treated controls, and identifying the drug concentration range at which the grayscale value is half that of the DMSO-treated control bands.
(§3) DC50 values can be calculated using ImageJ software to measure grayscale values of Western blot bands from drug-treated samples. The concentration-response curve is fitted to estimate the drug concentration corresponding to half the grayscale value.
(§4) Target protein remaining (%) refers to the percentage of target protein remaining in cells after treatment with protein degrader compounds.
(§5) Calculation method for target protein remaining (%): Use ImageJ software to measure grayscale values of Western blot bands from drug (protein degrader)-treated samples. The grayscale value of drug-treated bands is divided by that of internal control protein bands, and the resulting quotient is normalized to obtain the relative percentage of remaining target protein after protein degrader treatment. Target protein degradation rate(%) = 1−target protein remaining(%). [formula]

IKZF2 = target: T2, IKZF2 (Homo sapiens, UniProt Q96SW2+Q9UKS7); test: Western-blot assay, substrate protein degradation in hPBMCs: IKZF2
T2 construct: effects of the compounds of the present disclosure on the expression of target proteins in cells; endogenous in cells; host or cells: human PBMCs (hPBMCs)
Protocol: as §1, §2, §3, §4, §5

GSPT1 = target: T3, GSPT1 (Homo sapiens, UniProt P15170+Q96SW2); test: Western-blot assay, substrate protein degradation in hPBMCs: GSPT1
T3 construct: effects of the compounds of the present disclosure on the expression of target proteins in cells; endogenous in cells; host or cells: human PBMCs (hPBMCs)
Protocol: as §1, §2, §3, §4, §5

CK1α = target: T4, CK1α (Homo sapiens, UniProt P48729+Q96SW2); test: Western-blot assay, substrate protein degradation in hPBMCs: CK1α
T4 construct: effects of the compounds of the present disclosure on the expression of target proteins in cells; endogenous in cells; host or cells: human PBMCs (hPBMCs)
Protocol: as §1, §2, §3, §4, §5

IKZF3 = target: T5, IKZF3 (Homo sapiens, UniProt Q96SW2+Q9UKT9); test: Western-blot assay, substrate protein degradation in hPBMCs: IKZF3
T5 construct: effects of the compounds of the present disclosure on the expression of target proteins in cells; endogenous in cells; host or cells: human PBMCs (hPBMCs)
Protocol: as §1, §2, §3, §4, §5

IKZF1 = target: T6, IKZF1 (Homo sapiens, UniProt Q13422+Q96SW2); test: Western-blot assay, substrate protein degradation in hPBMCs: IKZF1
T6 construct: effects of the compounds of the present disclosure on the expression of target proteins in cells; endogenous in cells; host or cells: human PBMCs (hPBMCs)
Protocol: as §1, §2, §3, §4, §5

T2 sequence (Q9UKS7 whole entry): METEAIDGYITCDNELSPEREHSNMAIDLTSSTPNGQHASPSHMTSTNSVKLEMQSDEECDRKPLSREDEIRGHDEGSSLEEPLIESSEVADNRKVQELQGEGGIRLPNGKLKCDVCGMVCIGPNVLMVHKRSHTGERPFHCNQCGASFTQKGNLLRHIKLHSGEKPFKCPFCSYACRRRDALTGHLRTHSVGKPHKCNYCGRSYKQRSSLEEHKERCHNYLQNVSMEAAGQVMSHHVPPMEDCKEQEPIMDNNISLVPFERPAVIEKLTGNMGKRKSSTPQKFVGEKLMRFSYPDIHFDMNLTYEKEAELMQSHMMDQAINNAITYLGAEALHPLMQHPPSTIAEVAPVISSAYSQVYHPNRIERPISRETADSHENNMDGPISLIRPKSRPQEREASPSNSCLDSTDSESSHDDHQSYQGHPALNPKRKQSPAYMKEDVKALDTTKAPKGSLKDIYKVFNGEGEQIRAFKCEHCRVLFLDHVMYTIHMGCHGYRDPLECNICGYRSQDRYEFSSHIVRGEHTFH
T2 sequence (Q96SW2 whole entry): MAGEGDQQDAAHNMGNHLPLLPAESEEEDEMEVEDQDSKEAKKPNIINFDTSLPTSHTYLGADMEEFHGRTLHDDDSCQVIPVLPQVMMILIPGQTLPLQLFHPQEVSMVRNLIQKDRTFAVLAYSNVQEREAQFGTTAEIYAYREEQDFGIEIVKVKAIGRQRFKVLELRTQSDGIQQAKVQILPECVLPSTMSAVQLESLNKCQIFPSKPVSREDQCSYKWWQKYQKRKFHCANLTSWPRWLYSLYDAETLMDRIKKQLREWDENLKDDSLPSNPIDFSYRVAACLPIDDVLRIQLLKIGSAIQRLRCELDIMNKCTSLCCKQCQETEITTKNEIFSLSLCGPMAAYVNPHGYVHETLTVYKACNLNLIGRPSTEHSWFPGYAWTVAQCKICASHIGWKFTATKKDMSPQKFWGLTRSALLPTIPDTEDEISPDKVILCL
T2 sequence (Q16531 whole entry partner): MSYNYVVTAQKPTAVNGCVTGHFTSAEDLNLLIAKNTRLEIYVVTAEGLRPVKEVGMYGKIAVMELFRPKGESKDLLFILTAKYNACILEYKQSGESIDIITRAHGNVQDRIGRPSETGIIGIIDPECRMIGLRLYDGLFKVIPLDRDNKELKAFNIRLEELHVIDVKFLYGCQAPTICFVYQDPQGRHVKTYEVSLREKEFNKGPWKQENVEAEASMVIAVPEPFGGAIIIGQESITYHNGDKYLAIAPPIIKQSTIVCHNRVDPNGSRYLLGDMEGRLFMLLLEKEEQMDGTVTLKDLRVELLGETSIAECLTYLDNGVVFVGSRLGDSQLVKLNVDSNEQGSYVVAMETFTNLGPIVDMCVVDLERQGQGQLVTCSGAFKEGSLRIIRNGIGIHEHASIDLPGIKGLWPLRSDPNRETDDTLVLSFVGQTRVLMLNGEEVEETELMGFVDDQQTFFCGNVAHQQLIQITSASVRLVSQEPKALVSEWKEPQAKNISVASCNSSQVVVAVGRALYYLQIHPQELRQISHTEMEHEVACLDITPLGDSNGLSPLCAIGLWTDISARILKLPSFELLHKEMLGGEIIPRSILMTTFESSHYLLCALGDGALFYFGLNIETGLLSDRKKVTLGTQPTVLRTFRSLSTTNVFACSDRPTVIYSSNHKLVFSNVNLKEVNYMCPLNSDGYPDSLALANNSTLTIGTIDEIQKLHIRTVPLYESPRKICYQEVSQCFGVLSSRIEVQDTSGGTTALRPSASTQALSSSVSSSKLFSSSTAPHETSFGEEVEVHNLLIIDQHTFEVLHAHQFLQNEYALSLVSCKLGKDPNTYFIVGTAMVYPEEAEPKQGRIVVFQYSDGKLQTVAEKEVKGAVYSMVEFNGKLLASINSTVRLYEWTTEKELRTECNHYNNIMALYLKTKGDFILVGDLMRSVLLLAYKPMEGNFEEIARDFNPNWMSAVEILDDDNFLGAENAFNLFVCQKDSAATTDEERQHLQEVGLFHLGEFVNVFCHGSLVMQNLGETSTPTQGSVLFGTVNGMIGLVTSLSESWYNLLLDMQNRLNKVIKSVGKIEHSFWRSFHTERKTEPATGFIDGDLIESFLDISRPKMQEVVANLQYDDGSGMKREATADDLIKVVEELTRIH
T6 sequence (Q13422 whole entry): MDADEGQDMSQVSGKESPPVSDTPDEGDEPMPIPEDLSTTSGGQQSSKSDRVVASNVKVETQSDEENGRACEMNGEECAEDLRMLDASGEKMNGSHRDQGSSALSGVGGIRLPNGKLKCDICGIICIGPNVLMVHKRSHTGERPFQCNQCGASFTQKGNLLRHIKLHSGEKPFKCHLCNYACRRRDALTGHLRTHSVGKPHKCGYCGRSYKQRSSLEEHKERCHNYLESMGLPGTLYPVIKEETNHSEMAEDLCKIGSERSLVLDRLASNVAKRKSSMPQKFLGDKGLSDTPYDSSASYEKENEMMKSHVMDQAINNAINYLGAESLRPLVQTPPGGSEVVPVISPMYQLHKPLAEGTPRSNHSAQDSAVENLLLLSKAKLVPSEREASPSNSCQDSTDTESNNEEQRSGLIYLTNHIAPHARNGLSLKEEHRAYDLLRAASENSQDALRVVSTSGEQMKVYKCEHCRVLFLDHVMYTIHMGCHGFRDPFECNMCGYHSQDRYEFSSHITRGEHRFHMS
T6 sequence (Q96SW2 whole entry): as the sequence (Q96SW2 whole entry) above
T6 sequence (Q16531 whole entry partner): as the sequence (Q16531 whole entry partner) above
T4 sequence (P48729 whole entry): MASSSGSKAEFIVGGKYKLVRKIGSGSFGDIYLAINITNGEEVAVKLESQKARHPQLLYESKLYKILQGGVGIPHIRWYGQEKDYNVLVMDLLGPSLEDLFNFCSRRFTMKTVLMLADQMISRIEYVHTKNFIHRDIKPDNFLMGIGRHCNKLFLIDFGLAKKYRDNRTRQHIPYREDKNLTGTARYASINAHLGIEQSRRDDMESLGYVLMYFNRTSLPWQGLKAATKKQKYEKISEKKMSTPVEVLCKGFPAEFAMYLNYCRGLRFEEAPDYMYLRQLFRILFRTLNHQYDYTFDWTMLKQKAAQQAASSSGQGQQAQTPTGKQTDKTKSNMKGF
T4 sequence (Q96SW2 whole entry): as the sequence (Q96SW2 whole entry) above
T4 sequence (Q16531 whole entry partner): as the sequence (Q16531 whole entry partner) above
T1 sequence (P30291 whole entry): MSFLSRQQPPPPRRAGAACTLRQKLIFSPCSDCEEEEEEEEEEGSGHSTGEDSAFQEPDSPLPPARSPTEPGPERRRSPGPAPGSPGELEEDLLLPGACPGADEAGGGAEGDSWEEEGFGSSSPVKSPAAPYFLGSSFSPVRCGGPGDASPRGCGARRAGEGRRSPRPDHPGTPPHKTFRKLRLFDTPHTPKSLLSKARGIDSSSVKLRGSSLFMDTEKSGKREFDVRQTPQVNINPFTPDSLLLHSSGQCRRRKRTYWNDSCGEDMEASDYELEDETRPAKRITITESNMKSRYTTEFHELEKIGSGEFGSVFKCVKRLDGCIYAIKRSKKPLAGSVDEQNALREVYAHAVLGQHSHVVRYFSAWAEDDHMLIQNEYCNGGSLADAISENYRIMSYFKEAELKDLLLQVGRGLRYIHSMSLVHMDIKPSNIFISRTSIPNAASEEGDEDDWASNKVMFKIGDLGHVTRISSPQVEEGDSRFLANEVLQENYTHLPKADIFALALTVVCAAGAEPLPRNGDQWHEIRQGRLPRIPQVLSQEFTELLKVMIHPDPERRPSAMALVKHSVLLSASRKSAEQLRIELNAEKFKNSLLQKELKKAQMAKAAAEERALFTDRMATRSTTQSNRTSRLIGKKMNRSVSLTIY
T1 sequence (Q96SW2 whole entry): as the sequence (Q96SW2 whole entry) above
T1 sequence (Q16531 whole entry partner): as the sequence (Q16531 whole entry partner) above
T3 sequence (P15170 whole entry): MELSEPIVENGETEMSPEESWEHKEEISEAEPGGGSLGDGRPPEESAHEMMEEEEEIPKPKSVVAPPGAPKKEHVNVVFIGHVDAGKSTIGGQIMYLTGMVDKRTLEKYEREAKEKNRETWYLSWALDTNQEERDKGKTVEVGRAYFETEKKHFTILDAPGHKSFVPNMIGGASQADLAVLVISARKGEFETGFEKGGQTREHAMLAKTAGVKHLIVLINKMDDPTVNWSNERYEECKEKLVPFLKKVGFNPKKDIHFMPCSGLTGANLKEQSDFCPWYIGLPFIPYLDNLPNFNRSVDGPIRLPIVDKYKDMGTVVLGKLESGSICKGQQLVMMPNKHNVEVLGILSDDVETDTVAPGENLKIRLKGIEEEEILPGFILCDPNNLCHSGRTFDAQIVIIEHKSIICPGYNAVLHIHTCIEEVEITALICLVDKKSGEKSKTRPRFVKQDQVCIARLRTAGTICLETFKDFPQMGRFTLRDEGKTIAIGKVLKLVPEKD
T3 sequence (Q96SW2 whole entry): as the sequence (Q96SW2 whole entry) above
T3 sequence (Q16531 whole entry partner): as the sequence (Q16531 whole entry partner) above

Compound | WEE1 substrate protein remaining % (WEE1) | IKZF2 substrate protein remaining % (IKZF2) | GSPT1 substrate protein remaining % (GSPT1) | CK1α substrate protein remaining % (CK1α) | IKZF3 substrate protein remaining % (IKZF3) | IKZF1 substrate protein remaining % (IKZF1)
O=C1CCN(N2C(=O)c3ccc(CN4CCN(c5cccc(Cl)c5Cl)CC4)cc3C2=O)C(=O)N1 [GT-04854, 5-((4-(2,3-dichlorophenyl)piperazin-1-yl)methyl)-2-(2,4-dioxotetrahydropyrimidin-1(2H)-yl)isoindoline-1,3-dione] | A ("A" is defined as 0% ≤ substrate protein remaining % ≤ 80%) | A ("A" is defined as 0% ≤ substrate protein remaining % ≤ 80%) | A ("A" is defined as 0% ≤ substrate protein remaining % ≤ 80%) | B ("B" is defined as 80%< substrate protein remaining %≤ 100%) | B ("B" is defined as 80%< substrate protein remaining %≤ 100%) | A ("A" is defined as 0% ≤ substrate protein remaining % ≤ 80%)
O=C1CCN(N2Cc3cc(CN4CCC(c5noc6cc(F)ccc56)CC4)ccc3C2=O)C(=O)N1 [GT-04864, 1-(5-((4-(6-fluorobenzo[d]isoxazol-3-yl)piperidin-1-yl)methyl)-1-oxoisoindolin-2-yl)dihydropyrimidine-2,4(1H,3H)-dione] | B ("B" is defined as 80%< substrate protein remaining %≤ 100%) | B ("B" is defined as 80%< substrate protein remaining %≤ 100%) | A ("A" is defined as 0% ≤ substrate protein remaining % ≤ 80%) | B ("B" is defined as 80%< substrate protein remaining %≤ 100%) | B ("B" is defined as 80%< substrate protein remaining %≤ 100%) | A ("A" is defined as 0% ≤ substrate protein remaining % ≤ 80%)
O=C1CCN(N2Cc3cc(CN4CCN(c5nsc6ccccc56)CC4)ccc3C2=O)C(=O)N1 [GT-04865, 1-(5-((4-(benzo[d]isothiazol-3-yl)piperazin-1-yl)methyl)-1-oxoisoindolin-2-yl)dihydropyrimidine-2,4(1H,3H)-dione] | B ("B" is defined as 80%< substrate protein remaining %≤ 100%) | B ("B" is defined as 80%< substrate protein remaining %≤ 100%) | A ("A" is defined as 0% ≤ substrate protein remaining % ≤ 80%) | B ("B" is defined as 80%< substrate protein remaining %≤ 100%) | B ("B" is defined as 80%< substrate protein remaining %≤ 100%) | A ("A" is defined as 0% ≤ substrate protein remaining % ≤ 80%)
O=C1CCN(N2Cc3cc(CN4CCN(c5ncccc5C(F)(F)F)CC4)ccc3C2=O)C(=O)N1 [GT-05174, 1-(1-oxo-5-((4-(3-(trifluoromethyl)pyridin-2-yl)piperazin-1-yl)methyl)isoindolin-2-yl)dihydropyrimidine-2,4(1H,3H)-dione] |  |  |  | B ("B" is defined as 80%< substrate protein remaining %≤ 100%) | B ("B" is defined as 80%< substrate protein remaining %≤ 100%) | B ("B" is defined as 80%< substrate protein remaining %≤ 100%)
O=C1CCN(N2Cc3cc(CN4CCN(c5cccc(C(F)(F)F)n5)CC4)ccc3C2=O)C(=O)N1 [GT-05175, 1-(1-oxo-5-((4-(6-(trifluoromethyl)pyridin-2-yl)piperazin-1-yl)methyl)isoindolin-2-yl)dihydropyrimidine-2,4(1H,3H)-dione] | A ("A" is defined as 0% ≤ substrate protein remaining % ≤ 80%) | B ("B" is defined as 80%< substrate protein remaining %≤ 100%) | A ("A" is defined as 0% ≤ substrate protein remaining % ≤ 80%) |  |  | B ("B" is defined as 80%< substrate protein remaining %≤ 100%)
O=C1CCN(N2Cc3cc(CN4CCN(c5ccc(C(F)(F)F)cn5)CC4)ccc3C2=O)C(=O)N1 [GT-05176, 1-(1-oxo-5-((4-(5-(trifluoromethyl)pyridin-2-yl)piperazin-1-yl)methyl)isoindolin-2-yl)dihydropyrimidine-2,4(1H,3H)-dione] |  | B ("B" is defined as 80%< substrate protein remaining %≤ 100%) |  | B ("B" is defined as 80%< substrate protein remaining %≤ 100%) |  | B ("B" is defined as 80%< substrate protein remaining %≤ 100%)
O=C1CCN(N2C(=O)c3ccc(CN4CCN(c5ccccn5)CC4)cc3C2=O)C(=O)N1 [GT-05351, 2-(2,4-dioxotetrahydropyrimidin-1(2H)-yl)-5-((4-(pyridin-2-yl)piperazin-1-yl)methyl)isoindoline-1,3-dione] |  | A ("A" is defined as 0% ≤ substrate protein remaining % ≤ 80%) |  | B ("B" is defined as 80%< substrate protein remaining %≤ 100%) | B ("B" is defined as 80%< substrate protein remaining %≤ 100%) | B ("B" is defined as 80%< substrate protein remaining %≤ 100%)
O=C1CCN(N2C(=O)c3ccc(CN4CCN(c5cccc(Cl)n5)CC4)cc3C2=O)C(=O)N1 [GT-05353, 5-((4-(6-chloropyridin-2-yl)piperazin-1-yl)methyl)-2-(2,4-dioxotetrahydropyrimidin-1(2H)-yl)isoindoline-1,3-dione] |  | B ("B" is defined as 80%< substrate protein remaining %≤ 100%) | A ("A" is defined as 0% ≤ substrate protein remaining % ≤ 80%) | B ("B" is defined as 80%< substrate protein remaining %≤ 100%) | B ("B" is defined as 80%< substrate protein remaining %≤ 100%) | B ("B" is defined as 80%< substrate protein remaining %≤ 100%)
O=C1CCN(N2C(=O)c3ccc(CN4CCN(c5cc(Cl)ccn5)CC4)cc3C2=O)C(=O)N1 [GT-05354, 5-((4-(4-chloropyridin-2-yl)piperazin-1-yl)methyl)-2-(2,4-dioxotetrahydropyrimidin-1(2H)-yl)isoindoline-1,3-dione] |  |  | A ("A" is defined as 0% ≤ substrate protein remaining % ≤ 80%) | B ("B" is defined as 80%< substrate protein remaining %≤ 100%) |  | B ("B" is defined as 80%< substrate protein remaining %≤ 100%)
O=C1CCN(N2C(=O)c3ccc(CN4CCN(c5ncccc5F)CC4)cc3C2=O)C(=O)N1 [GT-05355, 2-(2,4-dioxotetrahydropyrimidin-1(2H)-yl)-5-((4-(3-fluoropyridin-2-yl)piperazin-1-yl)methyl)isoindoline-1,3-dione] | B ("B" is defined as 80%< substrate protein remaining %≤ 100%) |  | A ("A" is defined as 0% ≤ substrate protein remaining % ≤ 80%) | B ("B" is defined as 80%< substrate protein remaining %≤ 100%) | B ("B" is defined as 80%< substrate protein remaining %≤ 100%) | B ("B" is defined as 80%< substrate protein remaining %≤ 100%)
O=C1CCN(N2Cc3cc(CN4CCN(c5ncc(Cl)cc5Cl)CC4)ccc3C2=O)C(=O)N1 [GT-05356, 1-(5-((4-(3,5-dichloropyridin-2-yl)piperazin-1-yl)methyl)-1-oxoisoindolin-2-yl)dihydropyrimidine-2,4(1H,3H)-dione] |  |  |  | B ("B" is defined as 80%< substrate protein remaining %≤ 100%) | B ("B" is defined as 80%< substrate protein remaining %≤ 100%) | B ("B" is defined as 80%< substrate protein remaining %≤ 100%)
O=C1CCN(N2Cc3cc(CN4CCN(c5nccc(F)c5F)CC4)ccc3C2=O)C(=O)N1 [GT-05357, 1-(5-((4-(3,4-difluoropyridin-2-yl)piperazin-1-yl)methyl)-1-oxoisoindolin-2-yl)dihydropyrimidine-2,4(1H,3H)-dione] |  | B ("B" is defined as 80%< substrate protein remaining %≤ 100%) |  | B ("B" is defined as 80%< substrate protein remaining %≤ 100%) | B ("B" is defined as 80%< substrate protein remaining %≤ 100%) | B ("B" is defined as 80%< substrate protein remaining %≤ 100%)
